Structures are written as SMILES. Values after ≈ are worked out from the molar mass of the structure shown. Values joined by “and” are separate entries in the source; they are usually repeats but may differ in a detail not shown here. Equal values may be shown once. Where a name gives a salt, the structure may show the parent alone.

Here are results for 6 molecules from patent publication US5326786A, “5,6,7,9-tetrahydro-1,2,3-trimethoxy-9-oxobenzo[alpha]heptalene derivative and pharmaceutical use” (Ohgen Research Laboratories Ltd., priority 1992, dated 1994).

Series [1] deals with adriamycin-resistant mouse leukemic cells p388/ADR. Briefly: In vitro cancer cell proliferation inhibiting test (1). The format is cell-based. As to conditions: 48 h, read-out: IC50 (50% proliferation inhibitory concentration), RPMI 1640 with 10% fetal bovine serum, cultured for 2 days. As for the experimental part: (§1) (1) 10^6 each of mouse leukemic cells p388/S and adriamycin-resistant mouse leukemic cells p388/ADR are suspended in RPMI 1640 media each containing 10% fetal bovine serum, respectively, and cultured for 2 days in the presence of a test compound (this was used after it was dissolved in dimethylsulfoxide to 1 mg/ml and the solution was diluted with a phosphate buffer).

The subject of series [2] is p388/S mouse leukemic cells. Described as above. To be noted: 48 h, read-out: IC50 (50% proliferation inhibitory concentration), RPMI 1640 with 10% fetal bovine serum, cultured for 2 days. The format is cell-based. Here is the method: as §1
The conditions of series [3]: known compounds, background; cited from earlier work.
For the next series, the system named is cancer cells. As to conditions: known compounds, background; cited from earlier work.
For the next series, the system named is CDF male mice. Briefly: Acute toxicity test. The format is in vivo, mouse. As to conditions: intraperitoneal.
A further series in a line: Acute toxicity test. To be noted: mouse, in vivo, ip; intraperitoneal; CDF male mice; 10 days observation; Litchfield Wilcoxon method; printed interval 233 to 310 mg/kg. The format is in vivo, mouse.
Series [4] deals with adriamycin-resistant mouse leukemic cells p388/ADR. The experiment in a line: In vitro cancer cell proliferation inhibiting test (2), Trypan Blue living cell count. The format is cell-based. Here is the method:
(§2) (2) Mouse leukemic cells p388/S and adriamycin-resistant mouse leukemic cells P388/ADR subculturally transplanted in the abdominal cavity of mice were taken out together with the asites therefrom, respectively, and after washing, suspended in RPMI 1640 media (each containing 10% fetal bovine serum and 10 μM 2-mercaptoethanol) to 2×10^5 cells/ml, respectively.
(§3) Test solutions (solutions of the compound of the later-described Example 3 in phosphate-buffered physiological saline) were added to portions of each of these cell suspensions, respectively; and the mixtures were separately put into a 24-well culture plate and subjected to culture for 2 days in a 5% carbon dioxide culturing vessel.

The subject of series [5] is p388/S mouse leukemic cells. The description is as above. The format is cell-based. Here is the method: as §2, §3

As for `COc1cc2c(c(OC)c1OC)-c1ccc(OC)c(=O)cc1C(NCC1COC(C)(C)O1)CC2` (racemic) [DL-N-(O,O-isopropylideneglyceryl)deacetylcolchicine], the IC50 in series [1] turned out to be 0.13 µg/mL (≈ 0.276 µM); in series [2], 0.013 µg/mL (≈ 0.0276 µM).

Consider `COc1cc2c(c(OC)c1OC)-c1ccc(OC)c(=O)cc1[C@@H](NC(C)=O)CC2` [Colchicine, colchicine], for which the toxicity entry in series [3] is listed as “strong toxicity”. For the same molecule, the carcinostatic action entry in the series on cancer cells is “no sufficient carcinostatic action”.

Consider `COc1cc2c(c(OC)c1OC)-c1ccc(OC)c(=O)cc1C(NC[C@H]1COC(C)(C)O1)CC2` (stereo partly drawn) [D-N-(O,O-isopropylideneglyceryl)deacetylcolchicine], for which the IC50 in series [1] stood at 0.038 µg/mL (≈ 0.0806 µM); in series [2] it was 0.014 µg/mL (≈ 0.0297 µM).

In general, LD50 refers to the dose expected to kill half of the subjects tested. A high value points to lower toxicity. For `COc1cc2c(c(OC)c1OC)-c1ccc(OC)c(=O)cc1C(NC[C@@H]1COC(C)(C)O1)CC2` (stereo partly drawn) [Example 3, L-N-(O,O-isopropylideneglycerol)deacetylcolchicine], the values for the IC50 in series [1] and in series [2] were 0.14 µg/mL (≈ 0.297 µM) and 0.018 µg/mL (≈ 0.0382 µM), respectively. Also, the body weight change entry in the series with CDF male mice (10 days observation) is reported as “tended to decrease up to 2 to 4 days after administration, but thereafter increased gradually”. For the same molecule, in the series with CDF male mice (high administration groups, on and after one day after administration), the acute toxicity symptoms result is “the lie of hair got worse on and after one day after administration, and cases where diarrhea or loss of hair arose were also observed”. For the same molecule, the LD50 at 240 h in “Acute toxicity test” stood at 269 mg/kg.

As for `CNc1ccc2c(cc1=O)C(NCC1COC(C)(C)O1)CCc1cc(OC)c(OC)c(OC)c1-2` (centres unmarked) [N'-(O,O-isopropylideneglyceryl)-N-methyldeacetylcolchiceinamide tartrate salt], the “IC50 (50% proliferation inhibitory concentration), P388/ADR” value in series [4] (2 days, experiment carried out three times, one value per experiment, tartrate salt) is 0.0164 µg/mL and 0.0192 µg/mL. The IC50 in series [4] (Mus musculus, 48 h, read-out: IC50 (50% proliferation inhibitory concentration), P388/ADR, 2 days, experiment carried out three times, one value per experiment) was found to be 0.018 µg/mL; in series [5] (Mus musculus, P388/S, 48 h, read-out: IC50 (50% proliferation inhibitory concentration), p388/S, 2 days, experiment carried out three times, one value per experiment), 0.0135 µg/mL. The “IC50 (50% proliferation inhibitory concentration), p388/S” value in series [5] (p388/S, 2 days, experiment carried out three times, one value per experiment, tartrate salt) is 0.0128 µg/mL and 0.0149 µg/mL.

In the case of `CNc1ccc2c(cc1=O)[C@@H](NC(C)=O)CCc1cc(OC)c(OC)c(OC)c1-2` [N-methylcolchiceinamide], the toxicity result in series [3] is reported as “strong toxicity”. In addition, in the series with cancer cells, the carcinostatic action entry is given as “no sufficient carcinostatic action”.
